Measurements as given in Sander's compilation of Henry's law constants.
Values joined by “and” are separate entries in the source; they are usually repeats but may differ in a detail not shown here. Identical values can stand only once.

Experiment: Henry solubility constant Hcp at 298.15 K (mol/(m3 Pa))

CCCCCC(=O)O [hexanoic acid]
Henry solubility constant Hcp (reference: Khan and Brimblecombe (1992)): 13
Henry solubility constant Hcp (reference: Khan et al. (1995)): 13
Henry solubility constant Hcp (reference: Kim and Kim (2016)): 9.9
Henry solubility constant Hcp (reference: von Hartungen et al. (2004)): 7.5

CN(C)c1nc(=O)n(C2CCCCC2)c(=O)n1C [hexazinone]
Henry solubility constant Hcp (reference: Mabury and Crosby (1996)): > 99

CCCCCCOC(C)=O [hexyl ethanoate]
Henry solubility constant Hcp (reference: Souchon et al. (2004)): 0.014

OCOO [hydroxymethyl hydroperoxide]
Henry solubility constant Hcp (reference: O’Sullivan et al. (1996)): 16000
Henry solubility constant Hcp (reference: Staffelbach and Kok (1993)): 16000
Henry solubility constant Hcp (reference: Zhou and Lee (1992)): 4700

[CH3][Hg+].[OH-] [hydroxymethylmercury]
Henry solubility constant Hcp (reference: Iverfeldt and Persson (1985)): 980

II [iodine (molecular)]
Henry solubility constant Hcp (reference: Eguchi et al. (1973)): 0.028

N=C=O [isocyanic acid]
Henry solubility constant Hcp (reference: Roberts et al. (2011)): 0.21

[Kr] [krypton]
Henry solubility constant Hcp (reference: Cosgrove and Walkley (1981)): 2.6e-05
Henry solubility constant Hcp (reference: Crovetto et al. (1982)): 2.5e-05
Henry solubility constant Hcp (reference: Krause and Benson (1989)): 2.5e-05
Henry solubility constant Hcp (reference: Morrison and Johnstone (1954)): 2.4e-05
Henry solubility constant Hcp (reference: von Antropoff (1910)): 3.4e-05 and 2.8e-05

C=C(C)C1CCC2(C)OC2C1 (configuration not stated) [limonene oxide]
Henry solubility constant Hcp (reference: Fichan et al. (1999)): 0.056

[Hg] [mercury]
Henry solubility constant Hcp (reference: Andersson et al. (2008)): 0.0013
Henry solubility constant Hcp (reference: Sanemasa (1975)): 0.0013

CN [methanamine]
Henry solubility constant Hcp (reference: Christie and Crisp (1967)): 0.89

CS [methanethiol]
Henry solubility constant Hcp (reference: De Bruyn et al. (1995b)): 0.002
Henry solubility constant Hcp (reference: Hine and Weimar (1965)): 0.0033

COc1ccccc1 [methoxybenzene]
Henry solubility constant Hcp (reference: Brockbank et al. (2013)): 0.029

COC(=O)C(C)O (configuration not stated) [methyl 2-hydroxypropanoate]
Henry solubility constant Hcp (reference: Sanz and Gmehling (2005)): 9.1

CCCC(=O)OC [methyl butanoate]
Henry solubility constant Hcp (reference: Aprea et al. (2007)): 0.037
Henry solubility constant Hcp (reference: Ioffe et al. (1984)): 0.036

COC(C)=O [methyl ethanoate]
Henry solubility constant Hcp (reference: Arp and Schmidt (2004)): 0.066
Henry solubility constant Hcp (reference: Butler and Ramchandani (1935)): 0.11
Henry solubility constant Hcp (reference: Fenclová et al. (2014)): 0.081
Henry solubility constant Hcp (reference: Ioffe et al. (1984)): 0.077
Henry solubility constant Hcp (reference: Kieckbusch and King (1979b)): 0.077
Henry solubility constant Hcp (reference: McKeown and Stowell (1927)): 0.087

CCCCCC(=O)OC [methyl hexanoate]
Henry solubility constant Hcp (reference: Aprea et al. (2007)): 0.019

CN=C=O [methyl isocyanate]
Henry solubility constant Hcp (reference: Roberts and Liu (2019)): 0.013

CN=C=S [methyl isothiocyanate]
Henry solubility constant Hcp (reference: Worthington and Wade (2007)): 0.16

CC/C=C/C[C@@H]1C(=O)CC[C@H]1CC(=O)OC [methyl jasmonate]
Henry solubility constant Hcp (reference: Karl et al. (2008)): 50

CCCCCCCC(=O)OC [methyl octanoate]
Henry solubility constant Hcp (reference: Aprea et al. (2007)): 0.0099

CCC(=O)OC [methyl propanoate]
Henry solubility constant Hcp (reference: Ioffe et al. (1984)): 0.052

CC1CCCCC1 [methylcyclohexane]
Henry solubility constant Hcp (reference: Ramachandran et al. (1996)): 0.00015

ClC1(Cl)C2(Cl)C3(Cl)C4(Cl)C(Cl)(Cl)C5(Cl)C3(Cl)C1(Cl)C5(Cl)C24Cl (configuration not stated) [mirex]
Henry solubility constant Hcp (reference: Yin and Hassett (1986)): 0.012

O=[N+]([O-])c1ccccc1 [nitrobenzene]
Henry solubility constant Hcp (reference: Warner et al. (1980)): 0.41

ClN(Cl)Cl [nitrogen trichloride]
Henry solubility constant Hcp (reference: Holzwarth et al. (1984)): 0.00099

FN(F)F [nitrogen trifluoride]
Henry solubility constant Hcp (reference: Ashton et al. (1968)): 7.8e-06
Henry solubility constant Hcp (reference: Dean et al. (1973)): 7.7e-06

[O][N+](=O)[O-] [nitrogen trioxide]
Henry solubility constant Hcp (reference: Thomas et al. (1998)): 0.018

O=NCl [nitrosyl chloride]
Henry solubility constant Hcp (reference: Scheer et al. (1997)): > 0.00049
